Counter-ions that a name gives are not always drawn.
Each molecule was assayed on sterol synthesis (cholesterol biosynthesis) in rat liver homogenate (assay: CSI screen: inhibition of sterol/cholesterol synthesis (14C-acetate incorporation into nonsaponifiable lipid) by rat liver homogenate). Details: one-hour period, rats fed 5% cholestyramine for four days, 60 min, read-out: CSI/IC50 (concentration required for 50% inhibition of sterol synthesis).
Type: biochemical
Description: The ability of compounds of the present invention to inhibit the biosynthesis of cholesterol was measured by a method (designated CSI screen) which utilizes the procedure described by R. E. Dugan, et al, Archiv. Biochem. Biophys., (1972), 152, 21-27. In this method, the level of HMG-CoA enzyme activity in standard laboratory rats is increased by feeding the rats a chow diet containing 5% cholestyramine for four days, after which the rats are sacrificed.
The rat livers are homogenized, and the incorporation of […] into nonsaponifiable lipid by the rat liver homogenate is measured. The micromolar concentration of compound required for 50% inhibition of sterol synthesis over a one-hour period is measured, and expressed as an IC50 value.

First: Cc1cc(-c2ccc(F)cc2)c(/C=C/[C@@H]2C[C@@H](O)CC(=O)O2)c(C)n1 (relative stereo) [Example 7, [4α,6β(E)]-6-[2-[4-(4-Fluorophenyl)-2,6-dimethyl-3-pyridinyl]ethenyl]tetrahydro-4-hydroxy-2H-pyran-2-one]
Second: Cc1cc(-c2ccccc2)c(/C=C/[C@@H]2C[C@@H](O)CC(=O)O2)c(C)n1 (relative stereo) [Example 2, [4α,6β(E)]-6-[2-(2,6-Dimethyl-4-phenyl-3-pyridinyl)ethenyl]tetrahydro-4-hydroxy-2H-pyran-2-one]
The IC50 of the first is 2.6-fold lower: 68 nM for the first, 180 nM for the second.

Going from `CC(C)c1cc(-c2ccc(F)cc2)c(/C=C/[C@@H](O)C[C@@H](O)CC(=O)O)c(C(C)C)n1` (relative stereo) [Example 16, [R*,S*(E)]-7-[4-(4-fluorophenyl)-2,6-bis(1-methylethyl)-3-pyridinyl]-3,5-dihydroxy-6-heptenoic acid, monosodium salt] to `Cc1cc(-c2ccc(F)cc2)c(/C=C/[C@@H](O)C[C@@H](O)CC(=O)O)c(C(C)C)n1` (relative stereo) [Example 20, [R*,S*-(E)]-7-[4-(4-fluorophenyl)-6-methyl-2-(1-methylethyl)-3-pyridinyl-3,5-dihydroxy-6-heptenoic acid, sodium salt], the IC50 falls from 30 nM to 16 nM (1.9-fold).

First: CCOC(=O)c1c(C)nc(C)c(/C=C/[C@@H](O)C[C@@H](O)CC(=O)O)c1-c1ccc(F)cc1 (relative stereo) [Example 12, [R*,S*-(E)]-5-(6-carboxy-3,5-dihydroxy-1-hexenyl)-4-(4-fluorophenyl)-2,6-dimethyl-, 3-ethyl ester, 3-pyridinecarboxylic acid, monosodium salt]
Second: COC(=O)c1c(C(C)C)nc(C)c(/C=C/[C@@H](O)C[C@@H](O)CC(=O)O)c1-c1ccc(F)cc1 (relative stereo) [Example 10, [R*,S*-(E)]-5-(6-carboxy-3,5-dihydroxy-1-hexenyl)-4-(4-fluorophenyl)-6-methyl-2-(1-methylethyl)-, 3-methyl ester, 3-pyridinecarboxylic acid, monosodium salt]
The IC50 of the first is 2-fold higher: 140 nM for the first, 70 nM for the second. The second is the more potent here.

`Cc1cc(-c2ccc(F)cc2)c(/C=C/[C@@H](O)C[C@@H](O)CC(=O)O)c(C(F)(F)F)n1` (relative stereo) [Example 23, [R*,S*-(E)]-7-[4-(4-fluorophenyl)-6-methyl-2-(trifluoromethyl)-3,5-dihydroxy-6-heptenoic acid, monosodium salt] and `O=C(O)C[C@H](O)C[C@H](O)/C=C/c1c(-c2ccc(F)cc2)cc(C(F)F)nc1C(F)(F)F` (relative stereo) [Example 25, [R*,S*-(E)]-7-[6-(difluoromethyl)-4-(4-fluorophenyl)-2-(trifluoromethyl)-3-pyridinyl]-3,5-dihydroxy-6-heptenoic acid, monosodium salt] are within 1.5-fold of each other in IC50: 50 nM for the first, 71 nM for the second.

`C=Cc1c(C)nc(C(C)C)c(/C=C/[C@@H](O)C[C@@H](O)CC(=O)O)c1-c1ccc(F)cc1` (relative stereo) [Example 41, [R*,S*-(E)]-7-[5-ethenyl-4-(4-fluorophenyl)-6-methyl-2-(1-methylethyl)-3-pyridinyl]-3,5-dihydroxy-6-heptenoic acid, monosodium salt] and `COc1c(C)nc(C(C)C)c(/C=C/[C@@H](O)C[C@@H](O)CC(=O)O)c1-c1ccc(F)cc1` (relative stereo) [Example 39, [R*,S*-(E)]-7-[4-(4-fluorophenyl)-5-methoxy-6-methyl-2-(1-methylethyl)-3-pyridinyl]-3,5-dihydroxy-6-heptenoic acid, monosodium salt] are within 1.5-fold of each other in IC50: 11 nM for the first, 8 nM for the second.

`Cc1nccc(-c2ccccc2)c1CC[C@H]1C[C@H](O)CC(=O)O1` (relative stereo) [Example 4, trans-Tetrahydro-4-hydroxy-6-[2-(2-methyl-4-phenyl-3-pyridinyl)ethyl]-2H-pyran-2-one] and `Cc1nccc(-c2ccccc2)c1/C=C/[C@@H]1C[C@@H](O)CC(=O)O1` (relative stereo) [Example 1, [4α,6β(E)]-Tetrahydro-4-hydroxy-6-[2-(2-methyl-4-phenyl-3-pyridinyl)ethenyl]-2H-pyran-2-one] are within 1.5-fold of each other in IC50: 420 nM for the first, 360 nM for the second.

`CC(C)c1nc(-c2ccccc2)cc(-c2ccc(F)cc2)c1/C=C/[C@@H](O)C[C@@H](O)CC(=O)O` (relative stereo) [Example 31, [R*,S*-(E)]-7-[2-[4-(4-fluorophenyl)-2-(1-methylethyl)-6-phenyl-3-pyridinyl]ethenyl]-3,5-dihydroxy-6-heptenoic acid, monosodium salt] and `Cc1cc(-c2ccc(F)cc2)c(/C=C/[C@@H](O)C[C@@H](O)CC(=O)O)c(C)n1` (relative stereo) [Example 8, [R*,S*(E)]-7-[4-(4-Fluorophenyl)-2,6-dimethyl-3-pyridinyl]-3,5-dihydroxy-6-heptenoic acid, sodium salt] are within 1.5-fold of each other in IC50: 58 nM for the first, 72 nM for the second.

Compared with `CCCNC(=O)c1c(C(C)C)nc(C(C)C)c(/C=C/[C@@H](O)C[C@@H](O)CC(=O)O)c1-c1ccc(F)cc1` (relative stereo) [Example 33, [R*,S*-(E)]-7-[4-(4-fluorophenyl)-2,6-bis(1-methylethyl)-5-[(propylamino)carbonyl]-3-pyridinyl]-3,5-dihydroxy-6-heptenoic acid, monosodium salt], `COC(=O)c1c(C(C)C)nc(C(C)C)c(/C=C/[C@@H](O)C[C@@H](O)CC(=O)O)c1-c1ccc(F)cc1` (relative stereo) [Example 14, [R*,S*-(E)]-5-(6-carboxy-3,5-dihydroxy-1-hexenyl)-4-(4-fluorophenyl)-2,6-bis-1-methylethyl)-, methyl ester-3-pyridinecarboxylic acid, sodium salt] is 4-fold higher in IC50: 20 nM for the first, 79 nM for the second.

Going from `CCc1nc(CC)c(C(=O)OC)c(-c2ccc(F)cc2)c1/C=C/[C@@H](O)C[C@@H](O)CC(=O)O` (relative stereo) [Example 35, [R*,S*-(E)]-5-(6-carboxy-3,5-dihydroxy-1-hexenyl)-2,6-diethyl-4-(4-fluorophenyl)-, methyl ester, 3-pyridinecarboxylic acid, monosodium salt] to `CCc1nc(CC)c(CO)c(-c2ccc(F)cc2)c1/C=C/[C@@H](O)C[C@@H](O)CC(=O)O` (relative stereo) [Example 37, [R*,S*-(E)]-7-[2,6-diethyl-4-(4-fluorophenyl)-5-(hydroxymethyl)-3-pyridinyl]-3,5-dihydroxy-6-heptenoic acid, monosodium salt], the IC50 falls from 44 nM to 24 nM (1.8-fold). The second is the more potent here.

`Cc1cc(C)c(/C=C/[C@@H](O)C[C@@H](O)CC(=O)O)c(-c2ccc(F)cc2)n1` (relative stereo) [Example 29, [R*,S*-(E)]-7-[2-(4-fluorophenyl)-4,6-dimethyl-3-pyridinyl]-3,5-dihydroxy-6-heptenoic acid, monosodium salt] and `Cc1nc(C)c(/C=C/[C@@H](O)C[C@@H](O)CC(=O)O)c(-c2ccc(F)cc2)c1C#N` (relative stereo) [Example 6, [R*,S*(E)]-7-[5-Cyano-4-(4-fluorophenyl)-2,6-dimethyl-3-pyridinyl]-3,5-dihydroxy-6-heptenoic acid, sodium salt] are within 1.5-fold of each other in IC50: 50 nM for the first, 62 nM for the second.

Going from `CCc1cc(-c2ccc(F)cc2)c(/C=C/[C@@H](O)C[C@@H](O)CC(=O)O)c(CC)n1` (relative stereo) [Example 27, [R*,S*-(E)]-7-[2,6-diethyl-4-4-(fluorophenyl)-3-pyridinyl]-3,5-dihydroxy-6-heptenoic acid, monosodium salt] to `Cc1cc(-c2ccccc2)c(/C=C/[C@@H](O)C[C@@H](O)CC(=O)O)c(C)n1` (relative stereo) [Example 3, [R*,S*(E)]-7-(2,6-dimethyl-4-phenyl-3-pyridinyl)-3,5-dihydroxy-6-heptenoicacid, sodium salt], the IC50 rises from 32 nM to 230 nM (7.2-fold).

The molecules below were run on Cholesterol Synthesis (assay: AICS screen: inhibition of cholesterol synthesis in rats (plasma [14C]cholesterol after sodium [1-14C]-acetate)). Details: 1.0 mg/kg, single dose, oral gavage, male Sprague-Dawley rats fed 5% cholestyramine; acetate one hour after drug, blood after 50 minutes.
Type: in vivo
Description: The ability of compounds of the present invention to inhibit the biosynthesis of cholesterol was also measured by a method (designated AICS screen) which utilizes the procedure described by A. W. Alberts et al, Proc. Natl. Acad. Sci., (1980), 77, pp 3957-3961.
In this method male Sprague-Dawley rats (200 g body weight) previously fed 5% cholestyramine for three days were randomly divided into groups (N=5/group) and given a single dose of vehicle (controls) or compound by an oral gavage at the indicated doses. One hour after drug dosing, all rats were injected intraperitoneally with sodium[1-^14 C]-acetate (18.75 μCi/rat in 0.2 ml saline). After 50 minutes, blood samples were taken, plasma obtained by centrifugation, and plasma [^14 C]cholesterol measured after saponification and extraction.

In the case of `CCCNC(=O)c1c(C(C)C)nc(C(C)C)c(/C=C/C2CC(O)CC(=O)O2)c1-c1ccc(F)cc1` (stereo not drawn) [Example 32, [2α,4α(E)]-4-(4-fluorophenyl)-2,6-bis(1-methylethyl)-n-propyl-5-[2-(tetrahydro-4-hydroxy-6-oxo-2H-pyran-2-yl)ethenyl]-3-pyridinecarboxamide], the “% Inhibition of Cholesterol Synthesis” value is reported as -25%.

Same assay, conditions: Rattus norvegicus, 50 min; 1.0 mg/kg, single dose, oral gavage, male Sprague-Dawley rats fed 5% cholestyramine; acetate one hour after drug, blood after 50 minutes

Going from `Cc1cc(-c2ccc(F)cc2)c(/C=C/[C@@H]2C[C@@H](O)CC(=O)O2)c(C(F)(F)F)n1` (relative stereo) [Example 22, [4α,6β(E)]-6-[2-[4-(4-fluorophenyl)-6-methyl-2-(trifluoromethyl)-3-pyridinyl]ethenyl]tetrahydro-4-hydroxy-2H-pyran-2-one] to `CCc1cc(-c2ccc(F)cc2)c(/C=C/[C@@H]2C[C@@H](O)CC(=O)O2)c(CC)n1` (relative stereo) [Example 26, [4α,6β(E)]-6-[2-[2,6-diethyl-4(4-fluorophenyl)-3-pyridinyl]ethenyl]tetrahydro-4-hydroxy-2H-pyran-2-one], the change in vivo at 1 mg/kg falls from -59% to -60%.

Source: US4906624A, “6-(((Substituted)pyridin-3-yl)alkyl)-and alkenyl)-tetrahydro-4-hydroxypyran-2-one inhibitors of cholesterol biosynthesis” (Warner-Lambert Company, priority 1988, dated 1990)
